Test results reported in article PMC4770715, “LIM kinase inhibitors disrupt mitotic microtubule organization and impair tumor cell proliferation” (Oncotarget, 2015).

What was measured:
Assay in all cases: biochemical
Design in all cases: KINOMEscan active-site competition binding, percent of control (100 = no competition)
Settings in all cases: competition binding, percent control
KIT = KIT (Homo sapiens, UniProt P10721)
TRPM6 = TRPM6 (Homo sapiens, UniProt Q9BX84)
PKN1 = PKN1 (Homo sapiens, UniProt Q16512)
PHKG1 = PHKG1 (Homo sapiens, UniProt Q16816)
CDC2L1 = molecular target: T1, CDC2L1 (Homo sapiens, UniProt P21127)
T1 construct: gene CDK11B

SYK = SYK (Homo sapiens, UniProt P43405)
HPK1 = molecular target: T2, HPK1 (Homo sapiens, UniProt Q92918)
T2 construct: gene MAP4K1

CDKL2 = CDKL2 (Homo sapiens, UniProt Q92772)
CDK11 = molecular target: T3, CDK11 (Homo sapiens, UniProt Q9BWU1)
T3 construct: gene CDK19

FLT1 = FLT1 (Homo sapiens, UniProt P17948)
MET(Y1235D) = MET(Y1235D) (Homo sapiens, UniProt P08581, Y1235D)
CSNK1G2 = CSNK1G2 (Homo sapiens, UniProt P78368)
ERN1 = ERN1 (Homo sapiens, UniProt O75460)
CDKL1 = CDKL1 (Homo sapiens, UniProt Q00532)
YANK2 = molecular target: T4, YANK2 (Homo sapiens, UniProt Q9NY57)
T4 construct: gene STK32B

GCN2(Kin.Dom.2,S808G) = molecular target: T5, GCN2(Kin.Dom.2,S808G) (Homo sapiens, UniProt Q9P2K8, S808G)
T5 construct: gene EIF2AK4; Kin.Dom.2

MEK3 = molecular target: T6, MEK3 (Homo sapiens, UniProt P46734)
T6 construct: gene MAP2K3

p38-beta = molecular target: T7, p38-beta (Homo sapiens, UniProt Q15759)
T7 construct: gene MAPK11

PIP5K2C = molecular target: T8, PIP5K2C (Homo sapiens, UniProt Q8TBX8)
T8 construct: gene PIP4K2C

AURKC = AURKC (Homo sapiens, UniProt Q9UQB9)
MST1 = molecular target: T9, MST1 (Homo sapiens, UniProt Q13043)
T9 construct: gene STK4

MST1R = MST1R (Homo sapiens, UniProt Q04912)
TXK = TXK (Homo sapiens, UniProt P42681)

T2 sequence (Q92918 whole entry): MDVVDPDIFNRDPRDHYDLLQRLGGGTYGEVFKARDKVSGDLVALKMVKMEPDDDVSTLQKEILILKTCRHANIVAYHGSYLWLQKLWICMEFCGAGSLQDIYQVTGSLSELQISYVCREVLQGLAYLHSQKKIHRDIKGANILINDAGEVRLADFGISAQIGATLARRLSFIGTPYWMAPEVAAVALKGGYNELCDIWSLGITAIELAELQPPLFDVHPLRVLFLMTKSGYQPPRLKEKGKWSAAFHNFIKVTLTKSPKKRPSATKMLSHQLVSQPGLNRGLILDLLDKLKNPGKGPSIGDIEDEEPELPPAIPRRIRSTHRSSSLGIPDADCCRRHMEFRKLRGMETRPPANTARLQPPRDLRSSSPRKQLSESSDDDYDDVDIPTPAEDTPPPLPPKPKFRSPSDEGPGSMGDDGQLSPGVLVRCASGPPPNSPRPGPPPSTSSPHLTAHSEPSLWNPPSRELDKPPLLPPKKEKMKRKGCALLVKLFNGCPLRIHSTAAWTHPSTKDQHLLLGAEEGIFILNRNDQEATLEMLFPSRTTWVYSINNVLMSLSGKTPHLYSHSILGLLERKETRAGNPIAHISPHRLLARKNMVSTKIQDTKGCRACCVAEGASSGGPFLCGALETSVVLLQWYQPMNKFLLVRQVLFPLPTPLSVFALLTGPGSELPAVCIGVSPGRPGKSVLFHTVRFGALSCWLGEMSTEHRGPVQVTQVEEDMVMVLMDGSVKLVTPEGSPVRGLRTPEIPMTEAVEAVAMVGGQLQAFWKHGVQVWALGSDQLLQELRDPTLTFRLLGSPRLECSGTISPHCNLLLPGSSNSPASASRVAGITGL
T5 sequence (Q9P2K8 whole entry S808G): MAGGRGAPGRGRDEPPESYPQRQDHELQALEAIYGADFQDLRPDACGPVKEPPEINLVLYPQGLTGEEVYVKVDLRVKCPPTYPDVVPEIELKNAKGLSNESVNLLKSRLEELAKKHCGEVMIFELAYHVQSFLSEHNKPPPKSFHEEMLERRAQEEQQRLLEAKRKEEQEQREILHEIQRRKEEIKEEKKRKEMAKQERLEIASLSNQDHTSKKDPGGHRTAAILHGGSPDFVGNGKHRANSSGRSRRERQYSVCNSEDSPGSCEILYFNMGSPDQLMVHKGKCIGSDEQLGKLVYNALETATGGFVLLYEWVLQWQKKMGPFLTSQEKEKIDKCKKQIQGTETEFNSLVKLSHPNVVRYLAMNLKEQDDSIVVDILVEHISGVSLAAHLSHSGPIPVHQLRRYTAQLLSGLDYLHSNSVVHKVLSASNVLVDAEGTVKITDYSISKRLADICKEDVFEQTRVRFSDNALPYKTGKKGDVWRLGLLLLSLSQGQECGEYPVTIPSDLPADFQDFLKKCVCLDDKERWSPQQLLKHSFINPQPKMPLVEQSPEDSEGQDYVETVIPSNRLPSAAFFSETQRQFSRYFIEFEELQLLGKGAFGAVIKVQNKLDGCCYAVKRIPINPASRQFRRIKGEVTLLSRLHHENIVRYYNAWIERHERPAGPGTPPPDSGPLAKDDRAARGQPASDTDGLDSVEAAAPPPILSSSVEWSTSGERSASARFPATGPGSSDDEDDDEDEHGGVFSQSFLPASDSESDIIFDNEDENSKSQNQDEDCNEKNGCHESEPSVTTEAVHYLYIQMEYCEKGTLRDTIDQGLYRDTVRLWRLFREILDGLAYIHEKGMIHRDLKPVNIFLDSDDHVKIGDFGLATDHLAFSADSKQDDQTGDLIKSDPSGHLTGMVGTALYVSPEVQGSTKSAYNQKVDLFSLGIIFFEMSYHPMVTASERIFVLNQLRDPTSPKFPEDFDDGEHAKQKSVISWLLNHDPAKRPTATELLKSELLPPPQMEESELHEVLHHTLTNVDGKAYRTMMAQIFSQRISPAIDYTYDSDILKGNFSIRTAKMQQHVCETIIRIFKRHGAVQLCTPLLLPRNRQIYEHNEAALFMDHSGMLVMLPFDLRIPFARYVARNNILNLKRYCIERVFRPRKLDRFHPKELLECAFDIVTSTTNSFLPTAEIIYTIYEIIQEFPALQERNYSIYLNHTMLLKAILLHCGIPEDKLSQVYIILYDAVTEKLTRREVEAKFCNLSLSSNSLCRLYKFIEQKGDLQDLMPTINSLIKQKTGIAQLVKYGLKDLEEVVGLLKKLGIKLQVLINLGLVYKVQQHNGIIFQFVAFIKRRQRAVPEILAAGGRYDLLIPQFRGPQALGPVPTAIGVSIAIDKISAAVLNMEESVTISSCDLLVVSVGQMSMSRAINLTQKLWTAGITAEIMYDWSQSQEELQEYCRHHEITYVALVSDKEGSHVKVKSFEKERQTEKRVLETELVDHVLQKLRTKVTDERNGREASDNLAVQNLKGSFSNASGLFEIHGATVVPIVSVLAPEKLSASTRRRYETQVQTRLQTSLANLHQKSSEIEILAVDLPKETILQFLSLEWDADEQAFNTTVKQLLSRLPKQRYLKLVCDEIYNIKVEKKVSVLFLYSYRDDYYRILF
T6 sequence (P46734 whole entry): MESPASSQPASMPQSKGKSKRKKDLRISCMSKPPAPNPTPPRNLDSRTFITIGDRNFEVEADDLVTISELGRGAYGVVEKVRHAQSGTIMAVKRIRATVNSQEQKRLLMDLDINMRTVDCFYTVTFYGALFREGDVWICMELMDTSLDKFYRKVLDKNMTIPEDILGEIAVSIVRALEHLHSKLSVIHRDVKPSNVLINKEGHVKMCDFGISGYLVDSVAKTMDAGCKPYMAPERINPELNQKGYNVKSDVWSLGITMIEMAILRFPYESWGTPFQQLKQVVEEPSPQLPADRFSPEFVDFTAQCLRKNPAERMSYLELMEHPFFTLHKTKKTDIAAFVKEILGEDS
TRPM6, sequence (Q9BX84 whole entry): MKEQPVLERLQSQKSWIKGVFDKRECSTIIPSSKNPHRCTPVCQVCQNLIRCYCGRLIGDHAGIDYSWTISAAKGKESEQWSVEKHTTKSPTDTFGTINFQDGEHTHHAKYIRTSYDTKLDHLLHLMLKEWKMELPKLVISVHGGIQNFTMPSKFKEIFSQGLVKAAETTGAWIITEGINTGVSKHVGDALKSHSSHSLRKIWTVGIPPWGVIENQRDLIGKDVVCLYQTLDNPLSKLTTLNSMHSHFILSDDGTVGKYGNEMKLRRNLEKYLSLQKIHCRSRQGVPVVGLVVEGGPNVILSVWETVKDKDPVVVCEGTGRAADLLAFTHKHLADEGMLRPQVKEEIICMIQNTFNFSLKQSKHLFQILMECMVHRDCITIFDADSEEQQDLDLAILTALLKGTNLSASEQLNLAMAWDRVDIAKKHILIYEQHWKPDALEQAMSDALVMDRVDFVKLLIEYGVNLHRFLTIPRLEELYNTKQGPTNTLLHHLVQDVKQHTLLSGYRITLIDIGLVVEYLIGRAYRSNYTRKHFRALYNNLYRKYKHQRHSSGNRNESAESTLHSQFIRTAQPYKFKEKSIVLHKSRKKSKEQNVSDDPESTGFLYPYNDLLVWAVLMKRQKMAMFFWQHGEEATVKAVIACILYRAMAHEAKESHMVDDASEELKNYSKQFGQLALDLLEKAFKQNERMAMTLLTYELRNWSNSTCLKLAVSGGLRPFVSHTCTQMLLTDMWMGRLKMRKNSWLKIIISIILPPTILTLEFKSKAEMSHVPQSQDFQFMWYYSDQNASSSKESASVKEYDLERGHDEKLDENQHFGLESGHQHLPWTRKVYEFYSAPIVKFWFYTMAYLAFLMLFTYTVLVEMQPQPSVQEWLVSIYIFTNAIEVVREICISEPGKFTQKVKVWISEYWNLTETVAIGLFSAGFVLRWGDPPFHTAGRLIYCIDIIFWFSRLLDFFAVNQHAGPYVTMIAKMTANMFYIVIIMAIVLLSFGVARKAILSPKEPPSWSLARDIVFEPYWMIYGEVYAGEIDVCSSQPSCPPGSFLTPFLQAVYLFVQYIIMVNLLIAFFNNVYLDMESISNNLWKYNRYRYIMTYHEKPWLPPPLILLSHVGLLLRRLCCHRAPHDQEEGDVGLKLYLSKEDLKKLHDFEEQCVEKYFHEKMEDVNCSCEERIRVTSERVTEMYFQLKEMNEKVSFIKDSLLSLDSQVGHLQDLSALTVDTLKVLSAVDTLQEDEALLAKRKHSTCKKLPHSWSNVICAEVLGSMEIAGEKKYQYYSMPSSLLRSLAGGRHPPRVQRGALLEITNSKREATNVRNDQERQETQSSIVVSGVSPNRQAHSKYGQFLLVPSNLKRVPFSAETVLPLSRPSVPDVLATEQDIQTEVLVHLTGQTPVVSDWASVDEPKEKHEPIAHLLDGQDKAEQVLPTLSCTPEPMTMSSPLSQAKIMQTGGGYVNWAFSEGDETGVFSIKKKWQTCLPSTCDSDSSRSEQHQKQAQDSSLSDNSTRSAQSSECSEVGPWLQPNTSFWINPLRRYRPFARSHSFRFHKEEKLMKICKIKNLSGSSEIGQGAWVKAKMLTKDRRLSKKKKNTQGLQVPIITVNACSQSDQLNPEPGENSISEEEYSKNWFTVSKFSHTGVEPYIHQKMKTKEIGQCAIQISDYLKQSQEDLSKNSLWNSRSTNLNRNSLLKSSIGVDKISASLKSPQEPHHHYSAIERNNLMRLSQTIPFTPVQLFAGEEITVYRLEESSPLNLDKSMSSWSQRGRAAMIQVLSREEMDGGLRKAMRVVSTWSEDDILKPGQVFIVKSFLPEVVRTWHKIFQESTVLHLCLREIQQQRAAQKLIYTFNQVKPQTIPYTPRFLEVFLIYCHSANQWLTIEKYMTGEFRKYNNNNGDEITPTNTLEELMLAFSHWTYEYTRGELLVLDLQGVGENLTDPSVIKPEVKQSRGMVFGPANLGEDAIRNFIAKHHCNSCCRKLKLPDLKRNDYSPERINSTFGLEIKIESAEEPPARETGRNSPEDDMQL

SMILES | remaining binding at 10 µM (KIT) | remaining binding at 10 µM (TRPM6) | remaining binding at 10 µM (PKN1) | remaining binding at 10 µM (PHKG1) | remaining binding at 10 µM (CDC2L1) | remaining binding at 10 µM (SYK) | remaining binding at 10 µM (HPK1) | remaining binding at 10 µM (CDKL2) | remaining binding at 10 µM (CDK11) | remaining binding at 10 µM (FLT1) | remaining binding at 10 µM (MET(Y1235D)) | remaining binding at 10 µM (CSNK1G2) | remaining binding at 10 µM (ERN1) | remaining binding at 10 µM (CDKL1) | remaining binding at 10 µM (YANK2) | remaining binding at 10 µM (GCN2(Kin.Dom.2,S808G)) | remaining binding at 10 µM (MEK3) | remaining binding at 10 µM (p38-beta) | remaining binding at 10 µM (PIP5K2C) | remaining binding at 10 µM (AURKC) | other results
COc1ccc(-c2cnccc2-c2cnc(NC(=O)C(C)C)s2)c(C(F)(F)F)c1 [CRT0105446, N-{5-[3-(4-Methoxy-2-trifluoromethyl-phenyl)-pyridin-4-yl]-hiazol-2-yl}-isobutyramide] | 55% | 94% | 62% | 78% | 54% | 100% | 100% | 2.2% | 34% | 80% | 96% | 55% | 87% | 80% | 100% | 92% | 83% | 100% | 3% | 88% | remaining binding at 10 µM (MST1): 100%; remaining binding at 10 µM (MST1R): 100%; remaining binding at 10 µM (TXK): 100%
Cc1ccc(-c2cnccc2-c2cnc(Nc3ccc(O)cc3)s2)c(Cl)c1 [CRT0105950, 4-{5-[3-(2-Chloro-4-methyl-phenyl)-pyridin-4-yl]-thiazol-2-ylamino}-phenol] | 3.2% | 93% | 20% | 56% | 71% | 100% | 22% | 0.6% | 2.3% | 21% | 14% | 30% | 68% | 77% | 100% | 94% | 27% | 93% | 2.3% | 3.8% | remaining binding at 10 µM (MST1): 3.4%; remaining binding at 10 µM (MST1R): 92%; remaining binding at 10 µM (TXK): 38%
